{
  "source": "paper PMC6946680",
  "about": "“Modulation of brain cation-Cl^− cotransport via the SPAK kinase inhibitor ZT-1a” (Nature Communications, 2020)",
  "origin": "cited, not measured here",
  "tested_on": "humans",
  "conditions": "cited from earlier work",
  "data": [
    {"smiles": "Cc1cc(C(C#N)c2ccc(Cl)cc2)c(Cl)cc1NC(=O)c1cc(I)cc(I)c1O", "note": "(stereo not shown) [Closantel, reference compound]", "values": [
      {"measurement": "toxicity contraindicating use in humans", "value": "retinal toxicity"}
    ]}
  ]
}
